What all share (assay): growth of human tumour cells (NCI), 48 h
For assay [1], the system named is OVCAR-5 ovarian.
The subject of assay [2] is OVCAR-3 ovarian.
Assay [3] relates to SK-MEL-5 melanoma.
Assay [4] deals with SF-268 CNS.
The subject of assay [5] is U251 CNS.
The test system of assay [6] is HCT-15 colon.
The test system of assay [7] is SN12C renal.
Assay [8] has as its system HOP-62 NSCLC.
The subject of assay [9] is SK-OV-3 ovarian.
Assay [10] deals with A498 renal.

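Assay format: 96-well plates, 48-hour exposure. Here, GI50 denotes the concentration required for 50% inhibition of growth. The concentration for full growth arrest is given as TGI.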

As to `NNC(=O)/C(=C/c1ccc(Cl)cc1Cl)NC(=O)c1ccccc1`, the TGI in [1], in assay [2], in assay [3], in assay [4], in assay [5] and in [6] was greater than 100 µM throughout. In addition, the TGI in assay [7], in assay [8], in assay [9] and in assay [10] was greater than 100 µM throughout.

Regarding `CN(C)C(=O)OC(Cn1cncn1)c1ccc(Cl)cc1Cl` (stereo not given), the TGI in assay [1], in [2], in assay [3], in [4], in [5] and in assay [6] was greater than 100 µM each time. For the same compound, the TGI in assay [7], in [8], in assay [9] and in assay [10] was greater than 100 µM each time.

In the case of `Cc1cc(N(CCCl)CCCl)ccc1C=Nc1ccc(-c2csc(Cc3ccccc3)n2)cc1`, the GI50 in [1] is 8.91 µM; in assay [2], 9.17 µM; in assay [3], 7.68 µM; in [4], 7.03 µM; in [5] it was 7.82 µM; in assay [6] it was 15.2 µM. Moreover, the GI50 was 3.85 µM in [7], 5.72 µM in assay [8], 11.8 µM in assay [9] and 0.144 µM in assay [10]. Also, the TGI in assay [1] is greater than 67.1 µM; in assay [2], 27 µM; in assay [3], 21.2 µM; in [4] it was greater than 85.4 µM; in assay [5] it was 37.6 µM; in assay [6], greater than 79.9 µM. Further, the TGI was 62.8 µM in [7], greater than 83 µM in assay [8], 50.1 µM in assay [9] and 1.13 µM in assay [10].

`COc1ccc(-c2nn3c(-c4cc(F)c(Cl)cc4Cl)nnc3s2)cc1`: the GI50 in assay [1] was 25.5 µM; in assay [2], 20.4 µM; in assay [3], 17.6 µM; in assay [4], 19.7 µM; in [5], 24.6 µM; in [6], 18.1 µM. For the same compound, the GI50 in assay [7] was 43.4 µM; in assay [8] it was 26.2 µM; in assay [9], 21.4 µM; in [10], 43.4 µM. Further, the TGI in assay [1] is 88.9 µM; in assay [2], 66.7 µM; in assay [3] it was 44.7 µM; in assay [4] it was greater than 100 µM; in assay [5], 74.5 µM; in assay [6] it was greater than 100 µM. Further, the TGI in assay [7], in assay [8], in [9] and in [10] was greater than 100 µM throughout.

With `CCOC(=O)c1c2c(n3ccccc13)C(=O)c1ccccc1C2=O`, the TGI in [1], in assay [2], in [3], in assay [4], in [5] and in assay [6] was greater than 100 µM in each case. Moreover, the TGI in assay [7], in assay [8], in [9] and in assay [10] was greater than 100 µM in each case.

For the compound `O=C(/C=C/c1ccccc1)c1cc(Br)ccc1O`, the TGI in [1] is 46.3 µM; in assay [2], 43 µM; in assay [3] it was 34.6 µM; in assay [4] it was 34 µM; in assay [5] it was 29.9 µM; in assay [6] it was 34.9 µM. Also, the TGI in assay [7] came out at 29.7 µM; in [8], 46.3 µM; in assay [9] it was 38.1 µM; in assay [10], 26.8 µM.

On to `COc1ccc(OC)c(NC(=O)C2=C(C)NC(C)=C(C(=O)Nc3cc(OC)ccc3OC)C2c2ccccc2)c1`, for which the TGI in [1], in assay [2], in assay [3], in assay [4], in assay [5] and in assay [6] was greater than 100 µM in each case. The TGI in [7], in assay [8], in [9] and in assay [10] was greater than 100 µM each time.

As to `CC1C=C(OC(=O)c2ccccc2)C(=O)C(n2cc(F)c(=O)[nH]c2=O)O1` (stereo not given), the TGI in assay [1], in [2], in [3], in assay [4], in assay [5] and in [6] was greater than 100 µM in each case. The TGI in assay [7], in assay [8], in assay [9] and in assay [10] was greater than 100 µM in each case.

Regarding `COC(=O)[C@H](C[C@H](Cc1ccccc1)NC(=O)c1csc([C@@H](C[C@H](C(C)C)N(C)C(=O)[C@@H](NC(=O)[C@H]2CCCCN2C)C(C)C)OC(C)=O)n1)NC(=O)OCc1ccccc1`, the GI50 in [1] was 0.0046 µM; in assay [2] it was less than 0.0009 µM; in assay [3], less than 0.0009 µM; in assay [4], 0.000974 µM; in [5] it was less than 0.0009 µM; in [6] it was 0.00401 µM. Further, the GI50 is less than 0.0009 µM in [7], less than 0.0009 µM in [8], 0.00199 µM in assay [9] and 0.00112 µM in assay [10]. The TGI in assay [1] was greater than 9 µM; in [3] it was 0.0182 µM; in [4], greater than 9 µM; in assay [5] it was greater than 9 µM; in [6], greater than 9 µM; in [7], greater than 9 µM. Moreover, the TGI in assay [8] is greater than 9 µM; in assay [9], greater than 9 µM; in assay [10] it was 0.0101 µM.

`COc1ccc2c(c1)/C(=C\c1c(C)nc3sccn13)C(=O)N2`: the GI50 is 7.81 µM in assay [1]; less than 0.01 µM in assay [2]; less than 0.0474 µM in assay [3]; 15.7 µM in [4]; less than 0.0468 µM in assay [6]; 0.0889 µM in [7]. For the same compound, the GI50 in assay [10] is less than 0.01 µM. The TGI in [1] was greater than 100 µM; in [3], 3.39 µM; in assay [4] it was greater than 100 µM; in assay [5], greater than 100 µM; in assay [6] it was greater than 27.1 µM; in [7], greater than 91.7 µM. The TGI in [8] is greater than 100 µM; in assay [9], greater than 38.3 µM; in assay [10] it was 0.0646 µM.

These data come from PubChem BioAssay (NCI).
